# Numbering of substitutions follows the chain as printed.
# Columns and labels:
# [1] = target: T1, wild type PEPCK-C (Sus scrofa, UniProt A0A4X1UM84); assay: IC50 determination, PEPCK-C activity in the direction of OAA synthesis (coupled spectrophotometric assay with malate dehydrogenase); format: biochemical, pig; details: saturating substrate concentration
# T1 construct: made in house; host or cells: Escherichia coli BL21 (DE3)
# T1 sequence (A0A4X1UM84 1-622): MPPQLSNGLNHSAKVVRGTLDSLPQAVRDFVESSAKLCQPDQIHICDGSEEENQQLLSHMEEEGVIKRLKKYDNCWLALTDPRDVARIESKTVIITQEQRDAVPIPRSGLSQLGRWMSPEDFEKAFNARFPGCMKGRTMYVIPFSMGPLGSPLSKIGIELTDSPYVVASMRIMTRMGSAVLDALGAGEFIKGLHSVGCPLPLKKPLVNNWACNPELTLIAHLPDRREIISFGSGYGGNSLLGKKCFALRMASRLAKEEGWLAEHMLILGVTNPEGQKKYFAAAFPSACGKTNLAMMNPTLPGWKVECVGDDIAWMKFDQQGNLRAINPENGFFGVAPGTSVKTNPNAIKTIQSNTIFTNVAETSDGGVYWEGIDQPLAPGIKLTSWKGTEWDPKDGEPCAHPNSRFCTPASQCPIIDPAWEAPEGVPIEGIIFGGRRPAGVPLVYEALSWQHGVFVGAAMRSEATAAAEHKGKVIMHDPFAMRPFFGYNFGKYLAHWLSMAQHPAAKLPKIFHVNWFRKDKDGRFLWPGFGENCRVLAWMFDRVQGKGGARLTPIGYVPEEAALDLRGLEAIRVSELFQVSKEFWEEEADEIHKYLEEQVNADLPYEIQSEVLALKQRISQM
# Procedure: PEPCK-C activity was measured in an UNICAM 500 spectrometer (UNICAM Analytical Systems, UK) with coupled spectrophotometric assays using pyruvate kinase and lactate dehydrogenase as auxiliary enzymes in PEP synthesis reaction and malate dehydrogenase in the reverse reaction.
# Variable inhibitor concentrations of 0–200 μM were also used. Assays were initiated by PEPCK-C addition. Rates were calculated by measuring the decreasing slope of absorbance at 340 nm after subtracting the rate of spontaneous NADH oxidation.
# 3-MP inhibition assays were fitted in double reciprocal plots. To describe the mixed non-competitive inhibition, the double reciprocal equation can be written as: 1/v = Km/Vmax (1+[I]/Ki) 1/[S]+1/Vmax (1+[I]/αKi) (2)
# [2] = target: T2, PEPCK-C 139L (Sus scrofa, UniProt A0A4X1UM84, M139L); assay: Isothermal titration calorimetry (ITC); format: binding, pig; details: 139Leu; for Kd / ΔH: 25°C
# T2 construct: His-tag (cleaved yes); made in house; host or cells: Escherichia coli BL21 (DE3)
# T2 sequence (A0A4X1UM84 1-622 M139L): T1 sequence (A0A4X1UM84 1-622) with M139L
# Procedure: (§1) The reference cell was filled with distilled water. […] 2 mM GTP was also added to the enzyme solution in the corresponding experiments. […] In all the assays, a total of 19 injections of 2 μL were added sequentially to the sample cell with a 150 s spacing to ensure that the thermal power signal returned to the baseline prior to the next injection. The binding isotherms (normalized heat effect as a function of the molar ratio) were analyzed with Origin 7 (OriginLab) using a single class of binding sites model. Calorimetric assays were perform in duplicates at least.
# [3] = target: T3, PEPCK-C 139M (Sus scrofa, UniProt A0A4X1UM84); assay: Isothermal titration calorimetry (ITC); format: binding, pig; details: 139Met; for Kd / ΔH: 25°C
# T3 construct: His-tag (cleaved yes); made in house; host or cells: Escherichia coli BL21 (DE3)
# T3 sequence (A0A4X1UM84 1-622): T1 sequence (A0A4X1UM84 1-622)
# Procedure: as §1
# [4] = target: T4, PEPCK-C 139Leu (Sus scrofa, UniProt A0A4X1UM84, M139L); assay: Near-UV circular dichroism spectra; format: binding, pig; details: 50 μM compound, 20 μM PEPCK-C (compound 1 also 150 μM, data not shown)
# T4 construct: made in house; host or cells: Escherichia coli BL21 (DE3)
# T4 sequence (A0A4X1UM84 1-622 M139L): T1 sequence (A0A4X1UM84 1-622) with M139L
# Procedure: (§2) PEPCK-C was diluted to 20 μM in a 20 mM HEPES pH 7.4 buffer, containing 1 mM TCEP. 50 μM 3-MP, compound 1 or compound 2 were added to the PEPCK-C solution. Readings were performed at 25°C in a 0.1 cm cuvette from 320 to 250 nm in a Chirascan CD-spectrophotometer (Applied Photophysics, UK). CD spectra were calculated after subtracting the blank which contained all the components except PEPCK-C.
# [5] = target: T5, PEPCK-C 139Met (Sus scrofa, UniProt A0A4X1UM84); assay: Near-UV circular dichroism spectra; format: binding, pig; parameters: His-tag (cleaved yes); made in house; host or cells: Escherichia coli BL21 (DE3); details: 50 μM compound, 20 μM PEPCK-C (compound 1 also 150 μM, data not shown)
# T5 sequence (A0A4X1UM84 1-622): T1 sequence (A0A4X1UM84 1-622)
# Procedure: as §2
# [6] = Solubility / precipitation in the enzymatic assay; format: physicochemical
# Procedure: Assays to calculate IC50 values were performed in the direction of OAA synthesis in 1 mL of a 100 mM HEPES buffer pH 7.4, containing 10 mM DTT, 0.2 mM MnCl2, 2 mM MgCl2, 2 mM GDP, 0.2 mM NADH, 2 mM PEP, 100 mM KHCO3 and 4 units of malate dehydrogenase. Variable inhibitor concentrations of 0–200 μM were also used. Assays were initiated by PEPCK-C addition. Rates were calculated by measuring the decreasing slope of absorbance at 340 nm after subtracting the rate of spontaneous NADH oxidation.
# [7] = stated for both isoenzymes, with and without GTP
IC50 [1] [µM],Kd ([2]; +GTP (2 mM)) [µM],ΔH ([2]; +GTP (2 mM)) [kcal/mol],Kd ([2]; -GTP) [µM],ΔH ([2]; -GTP) [kcal/mol],Kd ([3]; +GTP (2 mM)) [µM],ΔH ([3]; +GTP (2 mM)) [kcal/mol],Kd ([3]; -GTP) [µM],ΔH ([3]; -GTP) [kcal/mol],"n (stoichiometry, number of binding sites), all experiments [2, 7]","n (stoichiometry, number of binding sites), all experiments [3, 7]",Solubility (in words) [6],Compound,Change of near-UV CD spectrum of the enzyme [4],Change of near-UV CD spectrum of the enzyme [5]
65 ± 6,39,-58.2,12,-32.6,19,-31.8,7.2,-20.4,,,,"O=C(O)c1ncccc1S [3-MP, 3-mercaptopicolinic acid]",modify the CD spectra of both isoenzymes,modify the CD spectra of both isoenzymes
30 ± 2,14,-13.9,9.8,-16.7,19,-26.6,4.4,-20.5,~1,~1,poor solubility,"Cn1nc(-c2ccc(C=NNC(=O)c3ccc(Cl)cc3Cl)s2)cc1C(F)(F)F [compound 2, N'1-({5-[1-methyl-5-(trifluoromethyl)-1H-pyrazol-3-yl]-2-thienyl}methylidene)-2,4-dichlorobenzene-1-carbohydrazide]",more markedly compound 2 modify the CD spectra of both isoenzymes,more markedly compound 2 modify the CD spectra of both isoenzymes
134 ± 4,,,,,,,,,,,poor solubility,"CC(=NNC(=S)NC1CCCCC1)c1sc(-c2cccs2)nc1C [compound 1, N1-cyclohexyl-2-{1-[4-methyl-2-(2-thienyl)-1,3-thiazol-5-yl]ethylidene}hydrazine-1-carbothiamide]",no clear differences in the enzyme CD spectra,no clear differences in the enzyme CD spectra
